From PMC10468942, “A Fluorescent Probe as a Lead Compound for a Selective α-Synuclein PET Tracer: Development of a Library of 2-Styrylbenzothiazoles and Biological Evaluation of [^18F]PFSB and [^18F]MFSB” (ACS Omega, 2023)
Read-outs that look alike come from different tables or passages of the source.

Experiments:
[1] = target: T1, αSYN fibrils (Homo sapiens, UniProt P37840); assay: [^3H]PiB competition binding assay on αSYN fibrils
T1 construct: cloning of the DNA construct encoding full-length αSYN into the pET-22b vector; made in house; host or cells: Escherichia coli BL21
Experimental: Following the cloning of the DNA construct encoding full-length αSYN into the pET-22b vector and its transformation into BL21 cells, the expression of human αSYN from a prokaryotic host was induced overnight in Escherichia coli at 20 °C with 0.5 mM IPTG. The cells were harvested by centrifugation, resuspended in 20 mM Tris-HCl pH 7.6, 25 mM NaCl and 1× complete protease inhibitor (Roche, Basel, Switzerland), and lysed by sonication. […] Anion exchange chromatography (HiTrap Q, GE Healthcare, Chicago, Illinois) was used to trap the produced αSYN, which was eluted with NaCl 0.1 M over 20 column volumes. Fractions containing αSYN were concentrated and further purified through a Superdex 75 SEC column equilibrated with PBS. […] A 4 mg/mL solution of αSYN in 20 mM K3PO4 pH 9.1 was placed in an orbital shaker at 37 °C, 1000 rpm for 5 days to prepare P91s. The assemblies were either sonicated with cycles of 20 s on and 10 s off at 50% amplitude (Q800R3, Qsonica) for a total of 10 min or directly aliquoted in volumes of 10 μL each stored at −80 °C until use. […] The final products were aliquoted, frozen on dry ice, and stored at −80 °C until use.
Concentrations of αSYN and Aβ1-42 fibrils were as described above.
Plates were incubated on a shaker (MaxQ 6000, Thermo Fisher Scientific, Inc., Marietta, OH) at 50 rpm for 2 h at 37 °C, covered by removable sealing tapes (PerkinElmer, Waltham, MA). Vacuum filtration and read-out were performed as previously reported.[17] […] Data points were fitted using nonlinear regression analysis in GraphPad Prism (GraphPad Software, Inc., Version 8.4.0, La Jolla).

[2] = target: αSYN fibrils; set-up: method as in PMID 33819025; conditions: fluorescence titration; cited from earlier work

- Ki ([1]; Ki-RB2, αSYN [^3H]PiB competition): 333 µM
- Ki ([1]; methylated compounds, Table 2, two values in a cell = single determinations, read-out: Ki): > 0.4 µM
Structure (SMILES): CN1CCN(c2ccc(C=Cc3sc4ccccc4[n+]3C)cc2)CC1 [RB2, 3-Methyl-2-(4-(4-methylpiperazin-1-yl)styryl)benzo[d]thiazol-3-ium Iodide, reference compound]
- Kd [2]: 4.4 ± 0.5 µM
